The results in this text go back to patent US20080234262A1 (Wyeth, priority 2007, published 2008).

Molecules are shown by their SMILES.

One experiment deals with PI3K (Homo sapiens, UniProt P42336). As to the kind of experiment: Fluorescence polarization assay for PI3K.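 Further: PI3K kinase reaction on PIP2 with ATP, 30-60 min, product sensed by GST-GRP with red probe in fluorescence polarization (mP), controls without enzyme and at zero time.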 The class given is biochemical. Particulars: PI3Kα; read-out: PI3Kα IC50. On the technique in general: Polarisation of emitted light reports the rotation of a fluorescent probe.
For a further experiment, the system named is prostate line LNCap. Description: In vitro cell culture growth assay (MTS), LNCap. Particulars: LNCap cells, three days after drug treatment. The class given is cell-based, human.
In a further experiment the test system is breast line MDA468. Description: In vitro cell culture growth assay (MTS), MDA468. Particulars: MDA468 cells, three days after drug treatment. The class given is cell-based, human. Put shortly: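 Cells were plated and, one day later, exposed to inhibitors for three days; viable cell density was then measured by metabolic conversion of MTS dye, read as absorbance at 490 nm. Growth is expressed as percent of vehicle-treated control cells on the same plate.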

PI3K, sequence (P42336 whole entry): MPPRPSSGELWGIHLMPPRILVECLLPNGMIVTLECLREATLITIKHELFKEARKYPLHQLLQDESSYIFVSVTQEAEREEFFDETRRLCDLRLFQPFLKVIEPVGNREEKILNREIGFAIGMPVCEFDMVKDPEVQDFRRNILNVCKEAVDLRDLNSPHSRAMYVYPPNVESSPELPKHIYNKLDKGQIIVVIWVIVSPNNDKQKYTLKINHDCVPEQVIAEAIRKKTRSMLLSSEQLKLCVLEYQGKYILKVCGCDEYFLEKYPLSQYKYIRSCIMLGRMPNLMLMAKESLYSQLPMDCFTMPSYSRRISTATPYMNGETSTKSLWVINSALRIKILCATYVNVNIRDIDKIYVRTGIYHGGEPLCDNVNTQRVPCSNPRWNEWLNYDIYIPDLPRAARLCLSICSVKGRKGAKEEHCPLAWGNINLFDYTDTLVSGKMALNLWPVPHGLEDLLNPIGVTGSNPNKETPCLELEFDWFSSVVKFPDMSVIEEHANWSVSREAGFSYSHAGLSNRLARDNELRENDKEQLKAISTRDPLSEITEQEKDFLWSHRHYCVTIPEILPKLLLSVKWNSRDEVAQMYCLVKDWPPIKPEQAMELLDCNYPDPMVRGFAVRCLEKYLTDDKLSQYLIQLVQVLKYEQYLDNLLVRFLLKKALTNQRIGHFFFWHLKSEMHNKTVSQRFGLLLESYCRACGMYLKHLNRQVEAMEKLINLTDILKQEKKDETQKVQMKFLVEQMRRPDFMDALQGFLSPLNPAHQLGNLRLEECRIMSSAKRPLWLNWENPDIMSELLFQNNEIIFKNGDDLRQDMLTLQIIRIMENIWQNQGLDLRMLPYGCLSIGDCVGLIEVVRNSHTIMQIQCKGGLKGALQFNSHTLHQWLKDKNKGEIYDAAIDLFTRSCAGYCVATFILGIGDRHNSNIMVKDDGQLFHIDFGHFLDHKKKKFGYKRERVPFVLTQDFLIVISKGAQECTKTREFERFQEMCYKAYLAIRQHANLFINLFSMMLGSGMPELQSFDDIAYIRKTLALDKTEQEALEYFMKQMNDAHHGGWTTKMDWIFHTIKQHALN
PI3K, sequence (P27986 whole entry partner): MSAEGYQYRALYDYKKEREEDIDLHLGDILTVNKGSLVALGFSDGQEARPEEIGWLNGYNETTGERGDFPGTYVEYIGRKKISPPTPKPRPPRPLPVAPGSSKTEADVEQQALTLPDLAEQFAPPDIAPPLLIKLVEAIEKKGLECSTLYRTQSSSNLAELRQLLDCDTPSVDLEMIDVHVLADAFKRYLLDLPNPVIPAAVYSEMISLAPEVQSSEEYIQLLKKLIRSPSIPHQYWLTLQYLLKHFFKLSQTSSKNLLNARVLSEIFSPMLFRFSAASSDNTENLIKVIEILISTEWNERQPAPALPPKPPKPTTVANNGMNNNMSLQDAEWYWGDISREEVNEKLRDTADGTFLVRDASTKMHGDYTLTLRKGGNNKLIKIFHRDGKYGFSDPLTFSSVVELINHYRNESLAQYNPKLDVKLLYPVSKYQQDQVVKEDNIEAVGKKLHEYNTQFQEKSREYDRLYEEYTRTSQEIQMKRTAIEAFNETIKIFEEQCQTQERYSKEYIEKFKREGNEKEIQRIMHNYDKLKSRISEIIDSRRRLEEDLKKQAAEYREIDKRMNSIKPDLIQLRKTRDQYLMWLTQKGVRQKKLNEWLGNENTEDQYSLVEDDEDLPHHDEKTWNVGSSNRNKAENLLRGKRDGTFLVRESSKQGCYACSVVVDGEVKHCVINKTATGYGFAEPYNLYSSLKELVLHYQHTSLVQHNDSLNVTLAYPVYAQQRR

For `CS(=O)(=O)Nc1ccc(-c2nc(N3CCOCC3)c3cnn(-c4ccccc4)c3n2)cc1` [Compound 99], the IC50 (commonly the concentration that gives 50% inhibition) turned out to be 332 nM on PI3K; 3500 nM in the experiment with prostate line LNCap (Homo sapiens, LNCaP, 72 h); 5000 nM with breast line MDA468 (Homo sapiens, 72 h).
Turning to `CNC(=O)Nc1ccc(-c2nc(N3CCOCC3)c3cnn(C4CCN(C(=O)c5cccnc5Cl)CC4)c3n2)cc1` [Compound 669, 1-[4-(1-{1-[(2-chloropyridin-3-yl)carbonyl]piperidin-4-yl}-4-morpholin-4-yl-1H-pyrazolo[3,4-d]pyrimidin-6-yl)phenyl]-3-methylurea], the values for the IC50 at PI3K, with prostate line LNCap and with breast line MDA468 were 100 nM, 80 nM and 460 nM, respectively.
For the compound `O=C(NCCF)Nc1ccc(-c2nc(N3CCOCC3)c3cnn(C4CCN(Cc5cccnc5)CC4)c3n2)cc1F` [Example 374, 1-(2-fluoroethyl)-3-(2-fluoro-4-{4-morpholin-4-yl-1-[1-(pyridin-3-ylmethyl)piperidin-4-yl]-1H-pyrazolo[3,4-d]pyrimidin-6-yl}phenyl)urea], the IC50 came to 619 nM at PI3K; 140 nM in the experiment with prostate line LNCap (Homo sapiens, LNCaP, 72 h); 1300 nM in the experiment on breast line MDA468 (Homo sapiens, 72 h).
As to `c1ccc(CN2CCC(n3ncc4c(N5CCOCC5)nc(-c5cccc6cc[nH]c56)nc43)CC2)cc1` [Example 72], the IC50 on PI3K came to 520 nM; with prostate line LNCap (Homo sapiens, LNCaP, 72 h), 9500 nM; with breast line MDA468 (Homo sapiens, 72 h) it was 6000 nM.
The like results for `COC(=O)Nc1ccc(-c2nc(N3CCOCC3)c3cnn(C4CCN(Cc5cccnc5OC)CC4)c3n2)cc1` [Compound 452, methyl [4-(1-{1-[(2-methoxypyridin-3-yl)methyl]piperidin-4-yl}-4-morpholin-4-yl-1H-pyrazolo[3,4-d]pyrimidin-6-yl)phenyl]carbamate] were, in that order, 1830 nM, 600 nM and 2200 nM.
The like results for `O=C(Nc1ccc(-c2nc(N3CCOCC3)c3cnn(C4CCN(CC(F)(F)F)CC4)c3n2)cc1)Nc1cccnc1` [Compound 787, 1-(4-{4-morpholin-4-yl-1-[1-(2,2,2-trifluoroethyl)piperidin-4-yl]-1H-pyrazolo[3,4-d]pyrimidin-6-yl}phenyl)-3-pyridin-3-ylurea] were, in that order, 40 nM, 27 nM and 140 nM.
The like results for `O=C(Nc1ccccc1)Nc1ccc(-c2nc(N3CCOCC3)c3cnn(C4CCN(C(=O)c5ccccc5)CC4)c3n2)cc1` [Example 378, 1-{4-[1-(1-benzoylpiperidin-4-yl)-4-morpholin-4-yl-1H-pyrazolo[3,4-d]pyrimidin-6-yl]phenyl}-3-phenylurea] were, in that order, 16 nM, 27 nM and 100 nM.
As for `CC(=O)Nc1ccc(-c2nc(N3CCOCC3)c3cnn(C4CCN(Cc5ccccc5)CC4)c3n2)cc1[N+](=O)[O-]` [Compound 184, N-{4-[1-(1-benzylpiperidin-4-yl)-4-morpholin-4-yl-1H-pyrazolo[3,4-d]pyrimidin-6-yl]-2-nitrophenyl}acetamide], the IC50 at PI3K was determined as 3080 nM; with prostate line LNCap (Homo sapiens, LNCaP, 72 h) it was 60000 nM; with breast line MDA468 (Homo sapiens, 72 h), 60000 nM.
`COC(=O)N1CCC(n2ncc3c(N4CCOC(C)C4)nc(-c4ccc(NC(=O)Nc5ccccc5)cc4)nc32)CC1` (stereo not drawn) [Compound 848, methyl 4-[6-{4-[(anilinocarbonyl)amino]phenyl}-4-(2-methylmorpholin-4-yl)-1H-pyrazolo[3,4-d]pyrimidin-1-yl]piperidine-1-carboxylate]: the IC50 on PI3K is 60 nM; with prostate line LNCap (Homo sapiens, LNCaP, 72 h) it was 62 nM; in the experiment on breast line MDA468 (Homo sapiens, 72 h) it was 720 nM.
In the case of `S=C(Nc1cccnc1)N1CCC(n2ncc3c(N4CCOCC4)nc(-c4ccc5[nH]ccc5c4)nc32)CC1` [Compound 122, 4-[6-(1H-indol-5-yl)-4-morpholin-4-yl-1H-pyrazolo[3,4-d]pyrimidin-1-yl]-N-pyridin-3-ylpiperidine-1-carbothioamide], the IC50 at PI3K worked out at 132 nM; with prostate line LNCap (Homo sapiens, LNCaP, 72 h), 700 nM; with breast line MDA468 (Homo sapiens, 72 h) it was 1300 nM.
Turning to `O=C(Nc1ccccc1)Nc1ccc(-c2nc(N3CCOCC3)c3cnn(C4CCN(C(=O)c5ccccc5)CC4)c3n2)cc1` [Compound 623, 1-{4-[1-(1-benzoylpiperidin-4-yl)-4-morpholin-4-yl-1H-pyrazolo[3,4-d]pyrimidin-6-yl]phenyl}-3-phenylurea], the IC50 is 16 nM on PI3K; less than 27 nM in the experiment on prostate line LNCap (Homo sapiens, LNCaP, 72 h); 50 nM in the experiment with breast line MDA468 (Homo sapiens, 72 h).
On the same counts, the results for `CN(C)c1ccc(CC(=O)Nc2ccc(-c3nc(N4CCOCC4)c4cnn(C5CCCCO5)c4n3)cc2)cc1` (stereo not drawn) [Compound 522, 2-[4-(dimethylamino)phenyl]-N-{4-[4-morpholin-4-yl-1-(tetrahydro-2H-pyran-2-yl)-1H-pyrazolo[3,4-d]pyrimidin-6-yl]phenyl}acetamide] are 6470 nM, 11000 nM and more than 60000 nM.
The like results for `CNCCNC(=O)Nc1ccc(-c2nc(N3CCOCC3)c3cnn(C4CCN(C(=O)c5cccnc5)CC4)c3n2)cc1` [Compound 593, 1-[2-(methylamino)ethyl]-3-(4-{4-morpholin-4-yl-1-[1-(pyridin-3-ylcarbonyl)piperidin-4-yl]-1H-pyrazolo[3,4-d]pyrimidin-6-yl}phenyl)urea] were, in that order, 45 nM, 5000 nM and 9000 nM.
The like results for `COC(=O)Nc1ccc(-c2nc(N3CCOCC3)c3cnn(C4CCN(C(=O)C(F)(F)F)CC4)c3n2)cc1` [Compound 811, methyl (4-{4-morpholin-4-yl-1-[1-(trifluoroacetyl)piperidin-4-yl]-1H-pyrazolo[3,4-d]pyrimidin-6-yl}phenyl)carbamate] were, in that order, 1350 nM, 1900 nM and 4600 nM.
For the compound `COC(=O)Nc1ccc(-c2nc(N3CCOCC3)c3cn[nH]c3n2)cc1` [Compound 279, methyl [4-(4-morpholin-4-yl-1H-pyrazolo[3,4-d]pyrimidin-6-yl)phenyl]carbamate], the IC50 at PI3K was 612 nM; in the experiment on prostate line LNCap (Homo sapiens, LNCaP, 72 h), 3000 nM; with breast line MDA468 (Homo sapiens, 72 h) it was 12000 nM.
With `COc1cccc(C(=O)N2CCC(n3ncc4c(N5CCOCC5)nc(-c5ccc6[nH]ccc6c5)nc43)CC2)c1` [Example 48], the IC50 on PI3K was determined as 780 nM; in the experiment on prostate line LNCap (Homo sapiens, LNCaP, 72 h), 590 nM; in the experiment with breast line MDA468 (Homo sapiens, 72 h) it was 2300 nM.
The like results for `O=C(NCCF)Nc1cc(F)c(-c2nc(N3CCOCC3)c3cnn(C4CCN(C(=O)c5cccnc5)CC4)c3n2)cc1F` [Example 467, 1-(2,5-difluoro-4-{4-morpholin-4-yl-1-[1-(pyridin-3-ylcarbonyl)piperidin-4-yl]-1H-pyrazolo[3,4-d]pyrimidin-6-yl}phenyl)-3-(2-fluoroethyl)urea] were, in that order, 2980 nM, 1200 nM and 2200 nM.
The like results for `CN1CCC(n2ncc3c(N4CCOCC4)nc(-c4ccc5[nH]ccc5c4)nc32)CC1` [Compound 124] were, in that order, 843 nM, 830 nM and 1700 nM.
The like results for `O=C(NO)Nc1ccc(-c2nc(N3CCOCC3)c3cnn(-c4ccccc4)c3n2)cc1` [Example 293, 1-hydroxy-3-[4-(4-morpholin-4-yl-1-phenyl-1H-pyrazolo[3,4-d]pyrimidin-6-yl)phenyl]urea] were, in that order, 211 nM, 480 nM and 1100 nM.
Turning to `O=C(Nc1ccccc1)Nc1ccc(-c2nc(N3CCOCC3)c3cnn(C4CCN(Cc5cccnc5)CC4)c3n2)cc1F` [Compound 598, 1-(2-fluoro-4-{4-morpholin-4-yl-1-[1-(pyridin-3-ylmethyl)piperidin-4-yl]-1H-pyrazolo[3,4-d]pyrimidin-6-yl}phenyl)-3-phenylurea], the IC50 on PI3K amounted to 41 nM; in the experiment with prostate line LNCap (Homo sapiens, LNCaP, 72 h), 70 nM; with breast line MDA468 (Homo sapiens, 72 h) it was 360 nM.
On the same counts, the results for `CCOC(=O)N1CCC(n2ncc3c(N4CCOCC4)nc(-c4ccc(NC(=O)NC5CC5)cc4)nc32)CC1` [Compound 821, ethyl 4-(6-{4-[(cyclopropylcarbamoyl)amino]phenyl}-4-morpholin-4-yl-1H-pyrazolo[3,4-d]pyrimidin-1-yl)piperidine-1-carboxylate] are 1120 nM, less than 27 nM and 140 nM.
`CNC(=O)Nc1ccc(-c2nc(N3CCOCC3)c3cnn(C4CCN(Cc5ccccn5)CC4)c3n2)cc1` [Example 331, 1-methyl-3-(4-{4-morpholin-4-yl-1-[1-(pyridin-2-ylmethyl)piperidin-4-yl]-1H-pyrazolo[3,4-d]pyrimidin-6-yl}phenyl)urea]: the IC50 on PI3K worked out at 65 nM; in the experiment on prostate line LNCap (Homo sapiens, LNCaP, 72 h) it was 27 nM; with breast line MDA468 (Homo sapiens, 72 h) it was 500 nM.
On the same counts, the results for `CNC(=O)Nc1ccc(-c2nc(N3CCOCC3)c3cnn(C4CCN(C(=O)c5cccc(OC)c5)CC4)c3n2)cc1` [Example 364, 1-(4-{1-[1-(3-methoxybenzoyl)piperidin-4-yl]-4-morpholin-4-yl-1H-pyrazolo[3,4-d]pyrimidin-6-yl}phenyl)-3-methylurea] are 75 nM, 35 nM and 300 nM.
The like results for `CNC(=O)Nc1ccc(-c2nc(N3CCOCC3)c3cnn(C4CCN(CC(=O)c5ccccc5)CC4)c3n2)cc1` [Compound 577, 1-methyl-3-(4-{4-morpholin-4-yl-1-[1-(2-oxo-2-phenylethyl)piperidin-4-yl]-1H-pyrazolo[3,4-d]pyrimidin-6-yl}phenyl)urea] were, in that order, 22 nM, less than 27 nM and 180 nM.
On to `CNC(=O)Nc1ccc(-c2nc(N3CCOCC3)c3cnn(C4CCN(C(=O)Nc5cccnc5)CC4)c3n2)cc1` [Example 335, 4-(6-{4-[(methylcarbamoyl)amino]phenyl}-4-morpholin-4-yl-1H-pyrazolo[3,4-d]pyrimidin-1-yl)-N-pyridin-3-ylpiperidine-1-carboxamide], for which the IC50 at PI3K stood at 30 nM; in the experiment on prostate line LNCap (Homo sapiens, LNCaP, 72 h), 3000 nM; in the experiment with breast line MDA468 (Homo sapiens, 72 h) it was 2500 nM.
